# How the values were obtained:
# [1] = target: T1, MKK7 (Homo sapiens, UniProt O14733); experiment: KINOMEscan competition binding assay, MKK7; parameters: M1/R419; host or cells: HEK-293; details: ratio PoC (off-target)/PoC (MKK4)
# T1 sequence (O14733 1-419): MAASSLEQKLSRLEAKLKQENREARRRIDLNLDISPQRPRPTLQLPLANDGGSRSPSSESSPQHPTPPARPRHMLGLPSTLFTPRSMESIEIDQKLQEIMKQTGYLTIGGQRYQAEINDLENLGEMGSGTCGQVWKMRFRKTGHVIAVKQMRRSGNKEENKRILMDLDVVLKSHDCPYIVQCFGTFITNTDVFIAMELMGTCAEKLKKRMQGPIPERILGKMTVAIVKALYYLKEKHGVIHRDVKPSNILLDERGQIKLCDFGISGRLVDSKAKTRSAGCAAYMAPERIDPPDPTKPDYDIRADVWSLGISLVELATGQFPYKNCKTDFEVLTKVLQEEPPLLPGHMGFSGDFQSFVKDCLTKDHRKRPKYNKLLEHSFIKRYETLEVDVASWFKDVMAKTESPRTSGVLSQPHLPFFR
# How it was run: (§1)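 DNA-tagged kinases expressed in HEK-293 cells compete between immobilized ligand on blocked beads and test compound at 100 nM; kinase retained on beads quantified by qPCR of the tag.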
# [2] = target: T2, BRaf (Homo sapiens, UniProt P15056); experiment: 33PanQinase enzyme assay, BRaf; type: biochemical; details: ratio IC50(BRaf)/IC50(MKK4)
# T2 construct: purchased ProQinase GmbH, Freiburg, Germany (33PanQinase Assay Service)
# T2 sequence (P15056 whole entry, species assumed): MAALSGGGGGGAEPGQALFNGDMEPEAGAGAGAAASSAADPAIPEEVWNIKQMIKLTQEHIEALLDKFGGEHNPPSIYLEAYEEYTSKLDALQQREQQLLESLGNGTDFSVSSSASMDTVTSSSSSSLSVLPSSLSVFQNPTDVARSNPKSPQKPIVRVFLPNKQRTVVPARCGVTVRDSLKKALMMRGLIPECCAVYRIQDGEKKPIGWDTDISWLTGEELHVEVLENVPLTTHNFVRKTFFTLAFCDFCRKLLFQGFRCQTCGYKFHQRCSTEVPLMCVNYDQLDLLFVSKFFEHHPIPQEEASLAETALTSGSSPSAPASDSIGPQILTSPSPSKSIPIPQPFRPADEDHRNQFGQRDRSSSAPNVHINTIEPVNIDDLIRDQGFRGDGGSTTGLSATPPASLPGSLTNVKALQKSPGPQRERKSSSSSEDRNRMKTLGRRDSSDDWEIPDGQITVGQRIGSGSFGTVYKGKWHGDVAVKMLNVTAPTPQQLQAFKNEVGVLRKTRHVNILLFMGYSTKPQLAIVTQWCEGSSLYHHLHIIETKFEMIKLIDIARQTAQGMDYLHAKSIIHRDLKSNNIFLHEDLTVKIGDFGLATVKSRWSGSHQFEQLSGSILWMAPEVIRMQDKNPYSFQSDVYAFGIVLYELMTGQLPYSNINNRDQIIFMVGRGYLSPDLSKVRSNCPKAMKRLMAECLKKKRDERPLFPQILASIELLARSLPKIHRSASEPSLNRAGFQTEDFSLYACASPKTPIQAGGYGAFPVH
# How it was run: (§2)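 Radiometric kinase reactions with ATP, test compound in DMSO and enzyme/substrate mix were incubated 60 min at 30 °C, stopped with 2% H3PO4 and washed; incorporated 33Pi was counted by scintillation. Single-concentration data are given as % residual activity; IC50 values come from least-squares curve fits.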
# [3] = target: T1, MKK7; experiment: 33PanQinase enzyme assay, MKK7; type: biochemical; parameters: purchased ProQinase GmbH, Freiburg, Germany (33PanQinase Assay Service); details: ratio IC50(MKK7)/IC50(MKK4)
# How it was run: as §2
# [4] = target: T3, MKK4 (Homo sapiens, UniProt P45985); experiment: 33PanQinase enzyme assay, MKK4; type: biochemical; details: assay 'IC50'; read-out: Potency MKK4 (IC50)
# T3 construct: purchased ProQinase GmbH, Freiburg, Germany (33PanQinase Assay Service)
# T3 sequence (P45985 1-399): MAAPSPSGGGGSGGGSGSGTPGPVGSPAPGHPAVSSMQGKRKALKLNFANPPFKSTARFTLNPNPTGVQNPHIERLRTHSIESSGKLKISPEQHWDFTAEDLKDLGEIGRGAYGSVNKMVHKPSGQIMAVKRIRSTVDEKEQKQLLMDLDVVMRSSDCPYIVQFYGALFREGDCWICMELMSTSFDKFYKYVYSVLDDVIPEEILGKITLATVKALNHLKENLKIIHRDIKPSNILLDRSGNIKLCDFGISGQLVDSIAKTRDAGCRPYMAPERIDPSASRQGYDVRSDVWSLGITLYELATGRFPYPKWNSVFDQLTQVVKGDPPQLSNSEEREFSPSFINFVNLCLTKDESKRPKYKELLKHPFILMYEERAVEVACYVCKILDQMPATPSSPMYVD
# How it was run: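 Radiometric 33PanQinase assay: kinase, substrate, ATP and compound in standard buffer, 60 min at 30 °C; 33Pi incorporation read by scintillation counting.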
# [5] = target: T4, JNK1 (Homo sapiens, UniProt P45983); experiment: 33PanQinase enzyme assay, JNK1; type: biochemical; parameters: purchased ProQinase GmbH, Freiburg, Germany (33PanQinase Assay Service); details: ratio IC50(JNK1)/IC50(MKK4)
# How it was run: as §2
# Target sequence in this assay (P45983 whole entry): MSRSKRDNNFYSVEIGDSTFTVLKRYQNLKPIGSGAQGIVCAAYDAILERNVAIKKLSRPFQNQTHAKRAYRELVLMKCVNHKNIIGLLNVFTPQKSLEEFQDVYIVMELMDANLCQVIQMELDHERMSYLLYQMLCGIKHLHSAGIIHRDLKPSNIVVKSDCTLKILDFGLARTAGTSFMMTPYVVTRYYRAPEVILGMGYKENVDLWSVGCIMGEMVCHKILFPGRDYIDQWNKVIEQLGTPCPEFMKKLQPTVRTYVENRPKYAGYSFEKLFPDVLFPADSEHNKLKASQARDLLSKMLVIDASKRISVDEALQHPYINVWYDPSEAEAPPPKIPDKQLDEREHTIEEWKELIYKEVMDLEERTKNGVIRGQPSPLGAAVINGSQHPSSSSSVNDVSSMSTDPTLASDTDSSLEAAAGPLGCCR
# [6] = target: T5, MKK4 (Homo sapiens, UniProt P45985); experiment: KINOMEscan competition binding assay, MKK4; details: residual percent of control binding (PoC) at 100 nM
# T5 construct: S84/D399; host or cells: HEK-293
# T5 sequence (P45985 84-399): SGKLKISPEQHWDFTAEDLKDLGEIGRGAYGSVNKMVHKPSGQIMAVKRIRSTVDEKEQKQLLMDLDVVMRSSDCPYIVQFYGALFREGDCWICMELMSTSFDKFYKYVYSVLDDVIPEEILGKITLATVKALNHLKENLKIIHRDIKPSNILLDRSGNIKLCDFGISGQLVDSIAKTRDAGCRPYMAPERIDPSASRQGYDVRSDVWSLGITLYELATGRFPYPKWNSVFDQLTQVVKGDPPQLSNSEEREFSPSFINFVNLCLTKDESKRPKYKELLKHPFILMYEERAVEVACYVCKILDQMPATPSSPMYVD
# How it was run: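 KINOMEscan competition of compound versus immobilized ligand for DNA-tagged MKK4 expressed in HEK-293 cells. Bound kinase was quantified by qPCR after elution.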
# [7] = target: T4, JNK1; experiment: KINOMEscan competition binding assay, JNK1; parameters: M1/Q384; host or cells: HEK-293; details: ratio PoC (off-target)/PoC (MKK4)
# How it was run: as §1
# Target sequence in this assay (P45983 1-384 isoform P45983-2): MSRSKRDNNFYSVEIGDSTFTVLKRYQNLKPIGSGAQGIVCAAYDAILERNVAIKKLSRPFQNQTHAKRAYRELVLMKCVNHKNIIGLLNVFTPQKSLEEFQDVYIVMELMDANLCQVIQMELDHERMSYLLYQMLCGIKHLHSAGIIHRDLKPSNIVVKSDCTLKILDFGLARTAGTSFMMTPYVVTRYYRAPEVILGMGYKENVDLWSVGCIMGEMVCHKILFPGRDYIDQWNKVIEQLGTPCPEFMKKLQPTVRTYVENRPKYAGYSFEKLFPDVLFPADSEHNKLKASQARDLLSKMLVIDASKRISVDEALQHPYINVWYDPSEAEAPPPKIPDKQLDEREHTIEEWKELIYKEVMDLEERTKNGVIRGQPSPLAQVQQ
# [8] = target: T2, BRaf; experiment: KINOMEscan competition binding assay, BRaf; details: ratio PoC (off-target)/PoC (MKK4)
# How it was run: as §1
Structure (SMILES),selectivity based on % Ctrl @100 nM vs. MKK7 [1],"Selectivity Braf, IC50(off-target)/IC50(MKK4) [2]","Selectivity IVIKK7, IC50(off-target)/IC50(MKK4) [3]",IC50 [4],"Selectivity JNK1, IC50(off-target)/IC50(MKK4) [5]",MKK4 [% Ctrl @ 100 nM [6],selectivity based on % Ctrl @100 nM vs. JNK1 [7],selectivity based on % Ctrl @100 nM vs. Braf [8]
"CCCS(=O)(=O)Nc1c(F)ccc(C(=O)c2c[nH]c3ncc(-c4ccc(C5CC5)nc4)cc23)c1F [Example 159, N-(3-(5-(6-cyclopropylpyridin-3-yl)-1H-pyrrolo[2,3-b]pyridine-3-carbonyl)-2,6-difluorophenyl)propane-1-sulfonamide]",+++ (Ratio > 100),++ (100 ≥ IC50(off-target)/IC50(MKK4) > 10),+++ (IC50(off-target)/IC50(MKK4) > 100),< 0.1 µM,+++ (IC50(off-target)/IC50(MKK4) > 100),+++ (PoC < 1),+++ (Ratio > 100),+++ (Ratio > 100)
"CCCS(=O)(=O)Nc1c(F)ccc(C(=O)c2c[nH]c3ncc(-c4ccc(NC)nc4)cc23)c1F [Example 160, N-(2,6-difluoro-3-(5-(6-(methylamino)pyridin-3-yl)-1H-pyrrolo[2,3-b]pyridine-3-carbonyl)phenyl)propane-1-sulfonamide]",+++ (Ratio > 100),++ (100 ≥ IC50(off-target)/IC50(MKK4) > 10),+++ (IC50(off-target)/IC50(MKK4) > 100),< 0.1 µM,++ (100 ≥ IC50(off-target)/IC50(MKK4) > 10),+++ (PoC < 1),+++ (Ratio > 100),+++ (Ratio > 100)
"CCCS(=O)(=O)Nc1c(F)ccc(C(=O)c2c[nH]c3ncc(-c4ccc(N(C)C)nc4)cc23)c1F [Example 161, N-(3-(5-(6-(dimethylamino)pyridin-3-yl)-1H-pyrrolo[2,3-b]pyridine-3-carbonyl)-2,6-difluorophenyl)propane-1-sulfonamide]",+++ (Ratio > 100),++ (100 ≥ IC50(off-target)/IC50(MKK4) > 10),+++ (IC50(off-target)/IC50(MKK4) > 100),< 0.1 µM,++ (100 ≥ IC50(off-target)/IC50(MKK4) > 10),+++ (PoC < 1),+++ (Ratio > 100),+++ (Ratio > 100)
"CCCS(=O)(=O)Nc1c(F)ccc(C(=O)c2c[nH]c3ncc(-c4ccc(N5CCC5)nc4)cc23)c1F [Example 162, N-(3-(5-(6-(azetidin-1-yl)pyridin-3-yl)-1H-pyrrolo[2,3-b]pyridine-3-carbonyl)-2,6-difluorophenyl)propane-1-sulfonamide]",+++ (Ratio > 100),++ (100 ≥ IC50(off-target)/IC50(MKK4) > 10),+++ (IC50(off-target)/IC50(MKK4) > 100),0.1 to 1 µM,++ (100 ≥ IC50(off-target)/IC50(MKK4) > 10),+++ (PoC < 1),+++ (Ratio > 100),+++ (Ratio > 100)
"C=Cc1ccc(-c2cnc3[nH]cc(C(=O)c4ccc(F)c(NS(=O)(=O)CCC)c4F)c3c2)cn1 [Example 163, N-(2,6-difluoro-3-(5-(6-vinylpyridin-3-yl)-1H-pyrrolo[2,3-b]pyridine-3-carbonyl)phenyl)propane-1-sulfonamide]",+++ (Ratio > 100),++ (100 ≥ IC50(off-target)/IC50(MKK4) > 10),+++ (IC50(off-target)/IC50(MKK4) > 100),< 0.1 µM,++ (100 ≥ IC50(off-target)/IC50(MKK4) > 10),+++ (PoC < 1),+++ (Ratio > 100),+++ (Ratio > 100)

# Reference: patent US11912701B2, “Protein kinase inhibitors for promoting liver regeneration or reducing or preventing hepatocyte death” (HEPAREGENIX GMBH, priority 2018, dated 2024)
